From ChEMBL document CHEMBL4725338, “Discovery of novel histone lysine methyltransferase G9a/GLP (EHMT2/1) inhibitors: Design, synthesis, and structure-activity relationships of 2,4-diamino-6-methylpyrimidines” (Bioorg Med Chem Lett, 2020)
≈ marks a conversion by molar mass, not a printed value. Calls of active or inactive are those of the source. The rule behind the calls is not given here.

Key:
[1] = molecular target: T1, CYP2C8 (Homo sapiens, UniProt P10632); test: Inhibition of CYP2C8 (unknown origin) at 10 uM relative to control; type: ADME
T1 sequence (P10632 whole entry): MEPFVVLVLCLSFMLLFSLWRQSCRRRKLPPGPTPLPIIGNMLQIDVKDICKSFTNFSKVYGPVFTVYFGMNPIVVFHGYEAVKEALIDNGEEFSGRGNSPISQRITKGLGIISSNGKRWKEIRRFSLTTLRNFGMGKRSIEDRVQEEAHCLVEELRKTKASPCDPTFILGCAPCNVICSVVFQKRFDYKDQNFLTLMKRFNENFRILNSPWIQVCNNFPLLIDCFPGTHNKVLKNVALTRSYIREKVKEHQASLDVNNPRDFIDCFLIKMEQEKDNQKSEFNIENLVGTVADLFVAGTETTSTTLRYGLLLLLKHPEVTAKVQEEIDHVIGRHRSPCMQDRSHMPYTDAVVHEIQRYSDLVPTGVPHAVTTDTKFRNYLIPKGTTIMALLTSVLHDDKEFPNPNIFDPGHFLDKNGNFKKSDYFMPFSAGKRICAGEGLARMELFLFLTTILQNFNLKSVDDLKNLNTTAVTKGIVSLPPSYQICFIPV

[2] = test system: CD34-positive (myeloid/lymphoid) cell; test: Induction of fetal globin in human CD34+ cells assessed as switching of mRAN expression from adult beta-globin to fetal type gamma globin at 0.3 to 1 uM by qRT-PCR analysis; type: functional, cell-based
[3] = molecular target: hERG (KCNH2) (Homo sapiens, UniProt Q12809); test: Inhibition of human ERG at 10 uM relative to control
Sequence of hERG (KCNH2) (Q12809 whole entry): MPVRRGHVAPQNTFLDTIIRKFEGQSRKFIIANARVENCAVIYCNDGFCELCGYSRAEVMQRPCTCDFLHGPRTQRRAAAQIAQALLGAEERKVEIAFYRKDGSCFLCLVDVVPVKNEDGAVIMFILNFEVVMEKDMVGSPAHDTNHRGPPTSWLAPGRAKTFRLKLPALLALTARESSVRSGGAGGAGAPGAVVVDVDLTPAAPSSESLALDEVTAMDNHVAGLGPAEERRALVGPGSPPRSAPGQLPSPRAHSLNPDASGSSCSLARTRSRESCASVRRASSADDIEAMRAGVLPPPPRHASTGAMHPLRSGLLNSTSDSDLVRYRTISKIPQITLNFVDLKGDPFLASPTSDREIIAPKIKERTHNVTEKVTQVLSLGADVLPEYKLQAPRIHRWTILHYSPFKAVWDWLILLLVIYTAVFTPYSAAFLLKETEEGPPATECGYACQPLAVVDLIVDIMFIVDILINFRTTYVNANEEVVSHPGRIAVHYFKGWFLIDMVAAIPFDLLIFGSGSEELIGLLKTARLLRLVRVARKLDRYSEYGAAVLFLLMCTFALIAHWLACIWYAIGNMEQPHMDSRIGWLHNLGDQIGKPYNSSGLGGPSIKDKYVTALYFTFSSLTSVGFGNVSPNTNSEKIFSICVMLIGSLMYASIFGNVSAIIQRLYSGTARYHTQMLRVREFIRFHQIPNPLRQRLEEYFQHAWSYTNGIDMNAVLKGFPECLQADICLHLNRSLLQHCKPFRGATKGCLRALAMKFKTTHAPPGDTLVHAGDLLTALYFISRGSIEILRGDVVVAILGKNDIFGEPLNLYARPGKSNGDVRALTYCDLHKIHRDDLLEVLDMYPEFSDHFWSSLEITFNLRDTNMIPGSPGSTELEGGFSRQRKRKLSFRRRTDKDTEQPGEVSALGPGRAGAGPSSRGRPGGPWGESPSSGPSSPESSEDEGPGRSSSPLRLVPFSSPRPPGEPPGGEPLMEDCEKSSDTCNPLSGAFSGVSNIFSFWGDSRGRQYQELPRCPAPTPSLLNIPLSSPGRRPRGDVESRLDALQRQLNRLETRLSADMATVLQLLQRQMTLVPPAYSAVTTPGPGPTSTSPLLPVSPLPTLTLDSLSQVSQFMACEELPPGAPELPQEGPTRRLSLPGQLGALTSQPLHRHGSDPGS

[4] = molecular target: CYP2C19 (Homo sapiens, UniProt P33261); test: Inhibition of CYP2C19 (unknown origin) at 10 uM relative to control; type: ADME
Sequence of CYP2C19 (P33261 whole entry): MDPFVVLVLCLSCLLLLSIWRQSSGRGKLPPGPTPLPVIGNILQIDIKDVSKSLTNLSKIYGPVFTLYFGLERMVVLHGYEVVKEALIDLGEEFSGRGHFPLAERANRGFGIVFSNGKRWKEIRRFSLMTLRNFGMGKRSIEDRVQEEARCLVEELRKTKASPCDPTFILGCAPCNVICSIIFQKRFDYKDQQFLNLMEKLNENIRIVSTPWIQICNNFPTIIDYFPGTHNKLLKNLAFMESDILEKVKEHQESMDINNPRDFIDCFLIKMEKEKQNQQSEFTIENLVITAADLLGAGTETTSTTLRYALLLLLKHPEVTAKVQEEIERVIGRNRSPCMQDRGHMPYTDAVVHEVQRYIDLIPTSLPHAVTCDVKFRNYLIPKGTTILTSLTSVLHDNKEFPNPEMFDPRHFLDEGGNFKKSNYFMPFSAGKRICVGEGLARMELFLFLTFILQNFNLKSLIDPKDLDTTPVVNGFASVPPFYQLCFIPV

[5] = molecular target: T2, CYP1A2 (Homo sapiens, UniProt P05177); test: Inhibition of CYP1A2 (unknown origin) at 10 uM relative to control; type: ADME
T2 sequence (P05177 whole entry): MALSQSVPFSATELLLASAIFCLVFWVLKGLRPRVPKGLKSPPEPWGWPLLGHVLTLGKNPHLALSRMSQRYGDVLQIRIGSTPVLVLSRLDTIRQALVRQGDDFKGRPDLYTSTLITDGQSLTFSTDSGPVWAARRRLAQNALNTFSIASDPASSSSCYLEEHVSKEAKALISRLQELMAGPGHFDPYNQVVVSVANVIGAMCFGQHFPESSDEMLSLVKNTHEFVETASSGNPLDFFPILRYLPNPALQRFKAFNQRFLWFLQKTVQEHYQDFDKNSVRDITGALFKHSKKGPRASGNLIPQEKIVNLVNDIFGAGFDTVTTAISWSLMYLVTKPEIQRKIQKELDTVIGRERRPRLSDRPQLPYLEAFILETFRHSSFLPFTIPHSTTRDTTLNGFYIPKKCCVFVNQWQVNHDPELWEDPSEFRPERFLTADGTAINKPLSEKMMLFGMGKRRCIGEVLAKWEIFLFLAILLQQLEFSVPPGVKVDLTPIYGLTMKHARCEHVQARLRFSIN

[6] = Metabolic stability in monkey liver microsomes assessed as compound remaining at 0.5 mg/mL incubated for 0.5 hrs; type: ADME, Macaca mulatta, Microsome; details: rhesus monkey, read-out: Stabilty
[7] = Aqueous solubility of the compound in pH 1.2 JP1 fluid; type: physicochemical
[8] = molecular target: T3, CYP3A4 (Homo sapiens, UniProt P08684); test: Inhibition of CYP3A4 (unknown origin) at 10 uM relative to control; type: ADME
T3 sequence (P08684 whole entry): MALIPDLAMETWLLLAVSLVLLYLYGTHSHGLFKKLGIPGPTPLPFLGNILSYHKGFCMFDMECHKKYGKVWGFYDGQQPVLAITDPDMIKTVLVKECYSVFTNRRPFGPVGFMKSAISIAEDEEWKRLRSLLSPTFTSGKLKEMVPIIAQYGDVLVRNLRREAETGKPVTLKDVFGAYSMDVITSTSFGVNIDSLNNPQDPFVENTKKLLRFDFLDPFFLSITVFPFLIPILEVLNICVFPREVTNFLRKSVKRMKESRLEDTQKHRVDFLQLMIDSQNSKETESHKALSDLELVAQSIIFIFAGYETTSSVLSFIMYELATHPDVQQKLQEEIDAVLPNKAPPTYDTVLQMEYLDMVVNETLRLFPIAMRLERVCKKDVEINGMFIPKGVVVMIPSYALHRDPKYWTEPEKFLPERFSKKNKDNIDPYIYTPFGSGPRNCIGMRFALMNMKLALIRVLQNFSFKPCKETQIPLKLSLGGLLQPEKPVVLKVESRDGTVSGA

[9] = Metabolic stability in mouse liver microsomes assessed as compound remaining at 0.5 mg/mL incubated for 0.5 hrs; type: ADME, Microsome; details: read-out: Stabilty
[10] = Lipophilicity, log D of compound; type: physicochemical; details: octanol/water
[11] = molecular target: T3, CYP3A4; test: Mechanism based inhibition of CYP3A4 in human liver microsome assessed as remaining percentage at 100 uM in presence of substrate ACN preincubated 30 mins followed by substrate addition relative to control; type: ADME; details: liver microsomes, probe ACN (so in the source), read-out: Activity
[12] = AUC (0 to infinity) in mouse at 10 mg/kg, po; type: ADME, organism-based; design: time infinity, route oral, dose 10 mg/kg; details: in vivo
[13] = AUC (0 to infinity) in mouse at 1 mg/kg, iv; type: ADME, organism-based; design: time infinity, route intravenous, dose 1 mg/kg; details: in vivo
[14] = Apparent permeability in MDCK cells; type: ADME, cell-based, Canis lupus familiaris; details: dog
[15] = molecular target: CYP2C9 (Homo sapiens, UniProt P11712); test: Inhibition of CYP2C9 (unknown origin) at 10 uM relative to control; type: ADME
Sequence of CYP2C9 (P11712 whole entry): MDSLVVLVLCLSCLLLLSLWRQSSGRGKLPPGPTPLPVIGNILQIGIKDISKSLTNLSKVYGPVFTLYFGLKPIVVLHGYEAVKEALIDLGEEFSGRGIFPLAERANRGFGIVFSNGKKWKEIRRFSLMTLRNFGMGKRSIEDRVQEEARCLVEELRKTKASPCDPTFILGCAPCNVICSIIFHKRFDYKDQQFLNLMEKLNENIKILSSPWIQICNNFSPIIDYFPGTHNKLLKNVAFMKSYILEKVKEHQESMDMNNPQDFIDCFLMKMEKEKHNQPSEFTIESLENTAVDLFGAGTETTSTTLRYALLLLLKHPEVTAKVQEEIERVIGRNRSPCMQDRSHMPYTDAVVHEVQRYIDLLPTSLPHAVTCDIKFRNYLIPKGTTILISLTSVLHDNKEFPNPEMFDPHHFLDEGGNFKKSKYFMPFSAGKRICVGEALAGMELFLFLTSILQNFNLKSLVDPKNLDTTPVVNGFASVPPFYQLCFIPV

[16] = Oral bioavailability in mouse at 10 mg/kg; type: ADME, organism-based; details: in vivo

SMILES | inhibition at 10 µM [1] | Activity [2] | inhibition at 10 µM [3] | inhibition at 10 µM [4] | inhibition at 10 µM [5] | remaining at 0.5 h [6] | solubility [7] | inhibition at 10 µM [8] | remaining at 0.5 h [9] | logD [10] | activity at 30 min, 100 µM [11] | AUC(0-inf) [12] | AUC(0-inf) [13] | Papp [14] | inhibition at 10 µM [15] | bioavailability [16]
CNc1cc(C)nc(Nc2ccc(OC)c(OCCCN3CCCC3)c2)n1 | 2% | Active | 42% | 3% | 5% | 8% | 740 µg/mL (≈ 1990 µM) | 8% | 48% | 0.8 | 93.6% | 2.86 µM·h | 1.71 µM·h | 3.1 ×10⁻⁶ cm/s | 0% | 17%
CNc1cc(C)nc(Nc2ccc(OC)c(C3=CCNCCC3)c2)n1 | 0% | Active | 1% | 9% | 0% | 24% | 680 µg/mL (≈ 2000 µM) | 0% | 34% | 0.5 | 80.5% | 3.15 µM·h | 0.79 µM·h | 1.4 ×10⁻⁶ cm/s | 0% | 40%
